“And” between values parts separate entries of the source, which are not always exact repeats. Equal entries are not always repeated.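 Briefly, cells in 96-well plates were exposed to five compound concentrations for 48 h, and endpoints were estimated by linear interpolation. GI50 = concentration required for 50% inhibition of growth.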 The source made the active and inactive calls. Rule as the data show it: active = GI50 up to about 1.1 µM and inactive = higher.
What was measured:
Assay in all cases: NCI anticancer screen, dose series, 48 h
786-0 = tested on: 786-0
CCRF-CEM = tested on: CCRF-CEM
DU-145 = tested on: DU-145
HCC 2998 = tested on: HCC 2998
HCT-116 = tested on: HCT-116
HOP-62 = tested on: HOP-62
KM12 = tested on: KM12
MDA-MB-231 = tested on: MDA-MB-231
MDA-MB-435 = tested on: MDA-MB-435
NCI-H226 = tested on: NCI-H226
NCI-H460 = tested on: NCI-H460
OVCAR-3 = tested on: OVCAR-3
PC-3 = tested on: PC-3
RPMI-8226 = tested on: RPMI-8226
SF-539 = tested on: SF-539
SK-MEL-2 = tested on: SK-MEL-2
SK-MEL-5 = tested on: SK-MEL-5
SN12C = tested on: SN12C
SR = tested on: SR
Hs-578T = tested on: Hs-578T

| SMILES | GI50 (786-0) | GI50 (CCRF-CEM) | GI50 (DU-145) | GI50 (HCC 2998) | GI50 (HCT-116) | GI50 (HOP-62) | GI50 (KM12) | GI50 (MDA-MB-231) | GI50 (MDA-MB-435) | GI50 (NCI-H226) | GI50 (NCI-H460) | GI50 (OVCAR-3) | GI50 (PC-3) | GI50 (RPMI-8226) | GI50 (SF-539) | GI50 (SK-MEL-2) | GI50 (SK-MEL-5) | GI50 (SN12C) | GI50 (SR) | GI50 (Hs-578T) |
| --- | --- | --- | --- | --- | --- | --- | --- | --- | --- | --- | --- | --- | --- | --- | --- | --- | --- | --- | --- | --- |
| S=c1[nH]nc(Cn2c3ccc(Br)cc3c3nc4ccccc4nc32)o1 | 34.3 µM (inactive) | 24.7 µM (inactive) | 36.6 µM (inactive) | 38.8 µM (inactive) | 28.3 µM (inactive) | 29.9 µM (inactive) | 47.3 µM (inactive) | > 45.4 µM (inactive) | 16.7 µM (inactive) | > 77.3 µM (inactive) | 36.9 µM (inactive) | 29.9 µM (inactive) | 4.79 µM (inactive) | 4.29 µM (inactive) | 30.4 µM (inactive) | 8.67 µM (inactive) | 31.6 µM (inactive) | 51.9 µM (inactive) | 0.568 µM (active) | – |
| CN(C(=O)Cc1ccc(Cl)c(Cl)c1)[C@@H]1CCCC[C@H]1[N+]1(C)CC=CC1 | > 100 µM (inactive) | – | > 100 µM (inactive) | > 100 µM (inactive) | > 100 µM (inactive) | > 100 µM (inactive) | > 100 µM (inactive) | > 100 µM (inactive) | > 100 µM (inactive) | > 100 µM (inactive) | – | > 100 µM (inactive) | > 100 µM (inactive) | > 100 µM (inactive) | – | > 100 µM (inactive) | > 100 µM (inactive) | > 100 µM (inactive) | > 100 µM (inactive) | – |
| CCOC(=O)[C@H]1C[C@]23CN(C(=O)OC(C)(C)C)CC[C@H]2CCC2(SCCCS2)[C@@H]3N1C | 34.5 µM (inactive) | 29.1 µM (inactive) | 54.3 µM (inactive) | 22.8 µM (inactive) | 31.8 µM (inactive) | 39.9 µM (inactive) | 33.3 µM (inactive) | – | 37.7 µM (inactive) | 29.6 µM (inactive) | 33.3 µM (inactive) | 48.2 µM (inactive) | 25.2 µM (inactive) | 20.4 µM (inactive) | 29.6 µM (inactive) | 22.2 µM (inactive) | 18.5 µM (inactive) | 21.3 µM (inactive) | 24 µM (inactive) | 51.6 µM (inactive) |
| O=c1cc(-c2ccccc2)oc2ccc(Oc3nnnn3-c3ccccc3)cc12 | 25.9 µM (inactive) | > 100 µM (inactive) | > 100 µM (inactive) | > 100 µM (inactive) | > 81.1 µM (inactive) | 29.4 µM (inactive) | > 100 µM (inactive) | – | 11.9 µM (inactive) | 25 µM (inactive) | > 100 µM (inactive) | > 100 µM (inactive) | > 100 µM (inactive) | > 100 µM (inactive) | 27.7 µM (inactive) | 39.2 µM (inactive) | > 100 µM (inactive) | > 42.3 µM (inactive) | > 33.1 µM (inactive) | 28.3 µM (inactive) |
| CCOP(=O)(/C=C\n1cc(C)c(=O)[nH]c1=O)OCC | > 100 µM (inactive) | > 100 µM (inactive) | > 100 µM (inactive) | – | > 100 µM (inactive) | > 100 µM (inactive) | > 100 µM (inactive) | > 100 µM (inactive) | > 100 µM (inactive) | > 100 µM (inactive) | > 100 µM (inactive) | > 100 µM (inactive) | > 100 µM (inactive) | > 100 µM (inactive) | > 100 µM (inactive) | > 100 µM (inactive) | > 100 µM (inactive) | > 100 µM (inactive) | – | – |
| c1ccc2c(c1)SCCCSCCSCCCS2 | > 100 µM (inactive) | > 100 µM (inactive) | > 100 µM (inactive) | > 100 µM (inactive) | > 100 µM (inactive) | > 100 µM (inactive) | > 100 µM (inactive) | 57.3 µM (inactive) | > 100 µM (inactive) | – | > 100 µM (inactive) | > 100 µM (inactive) | > 100 µM (inactive) | – | > 100 µM (inactive) | – | > 100 µM (inactive) | > 100 µM (inactive) | > 100 µM (inactive) | – |
| COC(=O)c1ccc(CS(=O)(=O)c2ccccc2)cc1 | > 100 µM (inactive) | > 100 µM (inactive) | – | > 100 µM (inactive) | 60.3 µM (inactive) | > 100 µM (inactive) | 51.9 µM (inactive) | – | – | > 100 µM (inactive) | 66.1 µM (inactive) | > 100 µM (inactive) | – | > 100 µM (inactive) | > 100 µM (inactive) | 38.5 µM (inactive) | 55.8 µM (inactive) | > 100 µM (inactive) | 45 µM (inactive) | – |
| COC(=O)CCC(NC(=S)N/N=C/c1ccccn1)C(=O)OC (stereo unspecified) | > 100 µM (inactive) | > 100 µM (inactive) | – | > 100 µM (inactive) | > 100 µM (inactive) | > 100 µM (inactive) | > 100 µM (inactive) | – | – | > 100 µM (inactive) | > 100 µM (inactive) | > 100 µM (inactive) | – | > 100 µM (inactive) | > 100 µM (inactive) | > 100 µM (inactive) | > 100 µM (inactive) | > 100 µM (inactive) | 59.2 µM (inactive) | – |
| CC1CC(c2ccccc2)Nc2nc3ccccc3n21 (stereo unspecified) | > 100 µM (inactive) | > 100 µM (inactive) | – | – | 66.4 µM (inactive) | > 100 µM (inactive) | > 100 µM (inactive) | > 100 µM (inactive) | > 100 µM (inactive) | > 100 µM (inactive) | > 100 µM (inactive) | > 100 µM (inactive) | > 100 µM (inactive) | > 100 µM (inactive) | > 100 µM (inactive) | > 100 µM (inactive) | > 100 µM (inactive) | – | > 100 µM (inactive) | > 100 µM (inactive) |
| CC(=O)C(C)C(=O)N1C(=O)N(C)C2(C)N(C)C(=O)NC12C (stereo unspecified) | > 100 µM (inactive) | – | > 100 µM (inactive) | > 100 µM (inactive) | > 100 µM (inactive) | > 100 µM (inactive) | > 100 µM (inactive) | > 100 µM (inactive) | > 100 µM (inactive) | – | > 100 µM (inactive) | > 100 µM (inactive) | – | > 100 µM (inactive) | > 100 µM (inactive) | > 100 µM (inactive) | > 100 µM (inactive) | > 100 µM (inactive) | > 100 µM (inactive) | > 100 µM (inactive) |
| O=c1c(Cl)c(Cl)cnn1-c1ccccc1 | 5.64 µM (inactive) and 4.79 µM (inactive) | – | 14.7 µM (inactive) and 12.5 µM (inactive) | 3.42 µM (inactive) and 3.85 µM (inactive) | 2.29 µM (inactive) and 1.75 µM (inactive) | 15 µM (inactive) and 8.49 µM (inactive) | 8.91 µM (inactive) and 7.94 µM (inactive) | 1.77 µM (inactive) | 1.79 µM (inactive) and 2.08 µM (inactive) | 9.38 µM (inactive) and 9.14 µM (inactive) | 2.92 µM (inactive) and 3.72 µM (inactive) | 2.03 µM (inactive) and 1.99 µM (inactive) | – | 5.92 µM (inactive) and 7.26 µM (inactive) | – | 3.94 µM (inactive) and 3.28 µM (inactive) | – | 2.06 µM (inactive) and 3.85 µM (inactive) | 2.14 µM (inactive) and 1.61 µM (inactive) | 1.54 µM (inactive) and 2.56 µM (inactive) |

Source: ChEMBL document CHEMBL1201862, “PubChem BioAssay data set” (2004)
